The values below come from patent US20230263792A1, “USE OF 2,3,5-SUBSTITUTED THIOPHENE COMPOUND FOR PREVENTING, ALLEVIATION, OR TREATING MASTOCYTOSIS” (PHAROS IBIO CO., LTD, priority 2020, published 2023).

Usually Kd stands for the free concentration of one partner at which half of the binding sites on the other are occupied at equilibrium, for simple one-to-one binding. A lower Kd goes with tighter binding.

Assay in all cases: Kinase binding assay (Kd, qPCR detection)
(In general: In qPCR the cycle at which signal appears reflects the starting amount.)

The target in one test is T1, KIT (A829P) (Homo sapiens, UniProt P10721, A829P).
T1 construct: T7 phage fusion or DNA label for qPCR detection; made in house; host or cells: T7 phage in E. coli BL21-derived host, or HEK-293 cells (both named)
T1 sequence (P10721 26-976 A829P): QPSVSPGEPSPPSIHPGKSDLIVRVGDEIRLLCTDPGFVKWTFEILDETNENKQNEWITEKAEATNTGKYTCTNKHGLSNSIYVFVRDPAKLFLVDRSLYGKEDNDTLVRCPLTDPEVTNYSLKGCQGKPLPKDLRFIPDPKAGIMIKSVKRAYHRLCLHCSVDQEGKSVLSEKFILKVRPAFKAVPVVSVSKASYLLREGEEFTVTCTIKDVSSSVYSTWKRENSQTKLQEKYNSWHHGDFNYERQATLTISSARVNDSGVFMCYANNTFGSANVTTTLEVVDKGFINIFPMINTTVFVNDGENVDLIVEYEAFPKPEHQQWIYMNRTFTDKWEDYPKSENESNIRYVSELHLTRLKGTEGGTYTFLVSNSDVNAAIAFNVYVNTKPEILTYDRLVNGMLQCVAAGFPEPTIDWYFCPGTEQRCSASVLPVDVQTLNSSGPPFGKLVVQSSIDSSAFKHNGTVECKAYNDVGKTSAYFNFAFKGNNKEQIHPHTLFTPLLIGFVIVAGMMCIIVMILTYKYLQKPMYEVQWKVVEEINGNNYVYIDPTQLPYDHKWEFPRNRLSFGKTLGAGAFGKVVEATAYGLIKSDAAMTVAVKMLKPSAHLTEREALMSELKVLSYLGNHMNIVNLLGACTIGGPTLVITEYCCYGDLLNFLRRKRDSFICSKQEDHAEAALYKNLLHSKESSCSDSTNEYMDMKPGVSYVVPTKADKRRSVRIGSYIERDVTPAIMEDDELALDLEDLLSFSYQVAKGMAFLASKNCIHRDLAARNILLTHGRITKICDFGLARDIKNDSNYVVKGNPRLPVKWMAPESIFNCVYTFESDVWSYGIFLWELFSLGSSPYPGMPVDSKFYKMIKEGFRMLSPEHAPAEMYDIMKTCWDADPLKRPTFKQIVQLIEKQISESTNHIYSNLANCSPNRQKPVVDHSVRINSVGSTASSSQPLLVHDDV
The protocol: (§1) A kinase-tagged T7 phage strain was prepared from an E. coli host derived from a BL21 strain. E. coli was grown in log-phase, infected with T7 phage, and then incubated with shaking at 32° C. until lysis. The lysates were centrifuged and filtered to remove cell debris. Thereafter, the kinase produced in HEK-293 cells was labeled with DNA for qPCR detection. Streptavidin-coated magnetic beads were treated with biotinylated small molecule ligand for 30 minutes at room temperature to produce affinity resins for kinase assay. The liganded beads were blocked with excess biotin and washed with blocking buffer (SeaBlock(Pierce), 1% BSA, 0.05% Tween 20, 1 mM DTT) to remove unbound ligand and to reduce nonspecific binding. Binding reactions were induced by combining kinase, ligand affinity beads and PHI-101 in 1× binding buffer (20% SeaBlock, 0.17× PBS, 0.05% Tween 20, 6 mM DTT). PHI-101 was prepared as a 111X stock in 100% DMSO. The binding constant (Kd) was determined using an 11-point 3-fold compound dilution series with three DMSO control points. All compounds for Kd measurements were dispensed by acoustic transfer (non-contact dispensing) in 100% DMSO. The compounds were then diluted directly into the assays such that the final concentration of DMSO was 0.9%. All reactions were performed in polypropylene 384-well plates at a final volume of 0.02 ml. The assay plates were incubated at room temperature with shaking for 1 hour and the affinity beads were washed with wash buffer (1× PBS, 0.05% Tween 20). The beads were then re-suspended in elution buffer (1× PBS, 0.05% Tween 20, 0.5 μM non-biotinylated affinity ligand) and incubated at room temperature with shaking for 30 minutes. The kinase concentration in the eluates was measured by qPCR.
(§2) 11-point 3-fold serial dilutions of each test compound were prepared in 100% DMSO at 100×final test concentration and then diluted to 1× in the assay (final DMSO concentration=1%). Most Kd values were determined using a compound top concentration=30,000 nM. If the initial Kd determined was <0.5 nM (lowest concentration tested), the measurement was repeated with a serial dilution starting at a lower top concentration.
(§3) The Kd value of c-kit protein was calculated with a standard dose-response curve (Equation 1) using the Hill equation.
(§4) The Hill Slope was set to −1. Curves were fitted using a non-linear least square fit with the Levenberg-Marquardt algorithm.

Another test deals with T2, KIT (D816V) (Homo sapiens, UniProt P10721, D816V).
T2 construct: T7 phage fusion or DNA label for qPCR detection; made in house; host or cells: T7 phage in E. coli BL21-derived host, or HEK-293 cells (both named)
T2 sequence (P10721 26-976 D816V): as the sequence (P10721 26-976 A829P) above, with D791V, P804A counted along it
The protocol: as §1, §2, §3, §4

The next test addresses T3, KIT (V559D) (Homo sapiens, UniProt P10721, V559D).
T3 construct: T7 phage fusion or DNA label for qPCR detection; made in house; host or cells: T7 phage in E. coli BL21-derived host, or HEK-293 cells (both named)
How it is done: as §1, §2, §3, §4

The target in the next test is T4, KIT (L576P) (Homo sapiens, UniProt P10721, L576P).
T4 construct: T7 phage fusion or DNA label for qPCR detection; made in house; host or cells: T7 phage in E. coli BL21-derived host, or HEK-293 cells (both named)
T4 sequence (P10721 26-976 L576P): as the sequence (P10721 26-976 A829P) above, with L551P, P804A counted along it
The protocol: as §1, §2, §3, §4

A further test deals with T5, KIT (D816H) (Homo sapiens, UniProt P10721, D816H).
T5 construct: T7 phage fusion or DNA label for qPCR detection; made in house; host or cells: T7 phage in E. coli BL21-derived host, or HEK-293 cells (both named)
T5 sequence (P10721 26-976 D816H): as the sequence (P10721 26-976 A829P) above, with D791H, P804A counted along it
How it is done:
as §1, §2, §3, §4

Another test deals with T6, KIT (V559D, V654A) (Homo sapiens, UniProt P10721, V559D/V654A).
T6 construct: T7 phage fusion or DNA label for qPCR detection; made in house; host or cells: T7 phage in E. coli BL21-derived host, or HEK-293 cells (both named)
T6 sequence (P10721 26-976 V559D/V654A): as the sequence (P10721 26-976 A829P) above, with V534D, V629A, P804A counted along it
How it is done: as §1, §2, §3, §4

The target of the next test is T7, KIT (V559D, T670I) (Homo sapiens, UniProt P10721, T670I/V559D).
T7 construct: T7 phage fusion or DNA label for qPCR detection; made in house; host or cells: T7 phage in E. coli BL21-derived host, or HEK-293 cells (both named)
T7 sequence (P10721 26-976 V559D/T670I): as the sequence (P10721 26-976 A829P) above, with V534D, T645I, P804A counted along it
The protocol:
as §1, §2, §3, §4

T3 sequence (P10721 26-976 V559D): as the sequence (P10721 26-976 A829P) above, with V534D, P804A counted along it

In the case of `NC(=O)Nc1cc(C#Cc2cccc(F)c2)sc1C(=O)N[C@H]1CCCNC1` [PHI-101], the Kd was found to be 0.0013 µM at KIT (A829P); 0.0021 µM at KIT (D816V); 0.016 µM on KIT (V559D); 0.039 µM on KIT (L576P); 0.0048 µM at KIT (D816H); 0.026 µM at KIT (V559D, V654A). This molecule also came in with a Kd on KIT (V559D, T670I) of 0.027 µM.
